{"source": "patent EP0289070A1", "about": "“Tertiary arylethyl amine derivatives having opiate-antagonistic activity” (DUPHAR INTERNATIONAL RESEARCH B.V, priority 1987, dated 1988)", "key": {"[1]": {"target": "cholinergic muscarine receptors", "assay_type": "binding, rat"}, "[2]": {"target": "(mainly u.-type) opiate receptors (Rattus norvegicus, UniProt P33535)", "sequence (P33535 whole entry)": "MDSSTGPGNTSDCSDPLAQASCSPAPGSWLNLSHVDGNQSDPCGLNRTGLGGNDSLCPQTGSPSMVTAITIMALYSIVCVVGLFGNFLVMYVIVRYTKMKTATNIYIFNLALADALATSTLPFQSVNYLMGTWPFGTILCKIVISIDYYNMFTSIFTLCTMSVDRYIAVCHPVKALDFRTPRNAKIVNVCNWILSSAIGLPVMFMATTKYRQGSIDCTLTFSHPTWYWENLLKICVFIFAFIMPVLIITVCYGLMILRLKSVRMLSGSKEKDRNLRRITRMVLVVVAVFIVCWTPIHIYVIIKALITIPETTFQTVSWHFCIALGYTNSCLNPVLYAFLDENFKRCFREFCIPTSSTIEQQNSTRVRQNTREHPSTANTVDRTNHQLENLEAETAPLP", "experiment": "Affinity to opiate receptors: [3H]-naloxone displacement in rat brain homogenates", "assay_type": "binding"}, "[3]": {"details": "[^3H] QNB displacement expressed in Ki; homogenates of rat brains; read-out: Affinity to muscarine receptors 2)"}}, "note": "Like-named read-outs stand apart in the source and are kept apart here.", "data": [{"smiles": "CCN(CCCC(=O)C1CCCCC1)[C@@H](C)Cc1ccc(O)cc1", "note": "[d]", "values": [{"measurement": "Ki", "setting": "[1]; [3]", "value": 4.1, "unit": "nM"}, {"measurement": "muscarinolytic activity", "setting": "[1]; pure R and S isomers of racemic compound b compared", "value": "found substantially exclusively in the S isomer"}]}, {"smiles": "CCN(CCCC(=O)C1CCCCC1)C(C)Cc1ccc(OC)cc1", "note": "(racemic) [g, reference compound]", "values": [{"measurement": "Ki", "setting": "[1]; [3]", "value": 2.7, "unit": "nM"}]}, {"smiles": "CCCC(=O)CCCN(CC)C(C)Cc1ccc(OC)cc1", "note": "(racemic) [e, reference compound]", "values": [{"measurement": "Ki", "setting": "[1]; [3]", "value": 28, "unit": "nM"}]}, {"smiles": "CCN(CCCC(=O)C1CCCCC1)C(C)Cc1ccc(O)cc1", "note": "(racemic) [b]", "values": [{"measurement": "Ki", "setting": "[1]; [3]", "value": 9.6, "unit": "nM"}]}, {"smiles": "CCN(CCCC(=O)C1CCCCC1)C(C)Cc1ccc(Cl)cc1", "note": "(racemic) [f, reference compound]", "values": [{"measurement": "Ki", "setting": "[1]; [3]", "value": 8.3, "unit": "nM"}]}, {"smiles": "CCN(CCCC(=O)C1CCCCC1)[C@H](C)Cc1ccc(O)cc1", "note": "[c]", "values": [{"measurement": "Ki", "setting": "[1]; [3]", "value": 450, "unit": "nM"}, {"measurement": "opiate-antagonistic activity", "setting": "[2]", "value": "found substantially entirely in the R isomer"}]}, {"smiles": "CCCN(CCCC(=O)C1CCCCC1)C(C)Cc1ccc(O)cc1", "note": "(racemic) [a]", "values": [{"measurement": "Ki", "setting": "[1]; [3]", "value": 5.2, "unit": "nM"}]}, {"smiles": "CN1[C@@H]2CC[C@H]1C[C@@H](OC(=O)C(CO)c1ccccc1)C2", "note": "(stereo partly shown) [atropine, reference compound]", "values": [{"measurement": "Ki", "setting": "[1]; read-out: Affinity to muscarine receptors 2)", "value": 1.4, "unit": "nM"}]}]}
